Where a name gives a salt, the structure may show the parent alone.
Biological target: T1, human Mnk2a (Homo sapiens, UniProt Q9HBH9)
T1 construct: made in house; host or cells: E. coli BL21 (vector pGEX-4T1)
Assay: Mnk2a in vitro kinase assay (indirect fluorescence polarization)
Type: biochemical
Conditions: GST-Mnk2a pre-activated with ERK2, 20 μM ATP, 30 μM substrate peptide; read-out: MNK2 IC50
Summary of the method: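 Indirect competitive fluorescence polarization: kinase-generated phospho-product displaces a fluorophore-labelled phospho-peptide from a phospho-specific antibody. Enzyme is N-terminal GST-Mnk2a from E. coli, activated with pre-activated ERK2 and 50 μM ATP; substrate is an amidated 12-mer peptide around eIF4E Ser209.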

T1 sequence (Q9HBH9 whole entry): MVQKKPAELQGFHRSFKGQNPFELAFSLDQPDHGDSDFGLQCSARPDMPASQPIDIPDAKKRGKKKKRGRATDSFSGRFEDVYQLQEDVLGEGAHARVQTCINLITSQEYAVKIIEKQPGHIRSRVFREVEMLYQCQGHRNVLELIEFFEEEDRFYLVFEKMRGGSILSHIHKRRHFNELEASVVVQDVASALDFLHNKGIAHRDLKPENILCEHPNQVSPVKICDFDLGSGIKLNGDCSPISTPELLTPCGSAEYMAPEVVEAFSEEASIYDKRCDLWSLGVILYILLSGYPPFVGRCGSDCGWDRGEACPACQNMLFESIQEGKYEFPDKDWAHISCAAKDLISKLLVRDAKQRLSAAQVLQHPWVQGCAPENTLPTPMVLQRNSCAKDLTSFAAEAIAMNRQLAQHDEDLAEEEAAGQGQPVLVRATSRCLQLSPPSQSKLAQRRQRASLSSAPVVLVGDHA

Row | IC50 [nM] | Compound
1 | 27 | Cc1c(C(=O)NCCc2c[nH]cn2)sc2ncnc(Nc3ccc(F)cc3OC3CCOCC3)c12 [Example 233]
2 | 90 | CSCCNC(=O)c1sc2ncnc(Nc3ccc(F)cc3OC3CCOCC3)c2c1C [Example 234]
3 | 12 | Cc1c(C(=O)NS(C)(=O)=O)sc2ncnc(Nc3ccc(F)cc3OC3CCOCC3)c12 [Example 235]
4 | 33 | Cc1c(C(=O)NCCC[S+](C)[O-])sc2ncnc(Nc3ccc(F)cc3OC3CCOCC3)c12 (centres unmarked) [Example 236]
5 | 36 | CSCCCNC(=O)c1sc2ncnc(Nc3ccc(F)cc3OC3CCOCC3)c2c1C [Example 237]
6 | 32 | Cc1c(C(=O)NCC[S+](C)[O-])sc2ncnc(Nc3ccc(F)cc3OC3CCOCC3)c12 (centres unmarked) [Example 238]
7 | 41 | CONC(=O)c1sc2ncnc(Nc3ccc(F)cc3OC3CCOCC3)c2c1C [Example 239]
8 | 36 | Cc1c(C(=O)N[C@H]2CCN(C(=O)OC(C)(C)C)C[C@@H]2O)sc2ncnc(Nc3ccc(F)cc3OC3CCOCC3)c12 [Example 241]
9 | 49 | Cc1c(C(=O)N[C@H]2CCCC[C@@H]2O)sc2ncnc(Nc3ccc(F)cc3OC3CCOCC3)c12 [Example 243]
10 | 19 | Cc1c(C(=O)NO)sc2ncnc(Nc3ccc(F)cc3OC3CCOCC3)c12 [Example 244]
11 | 39 | COCCONC(=O)c1sc2ncnc(Nc3ccc(F)cc3OC3CCOCC3)c2c1C [Example 245]
12 | 18 | Cc1c(C(=O)N[C@H]2CCNC[C@@H]2O)sc2ncnc(Nc3ccc(F)cc3OC3CCOCC3)c12 [Example 246]
13 | 44 | Cc1c(C(=O)Nc2ccn(C)c(=O)n2)sc2ncnc(Nc3ccc(F)cc3OC3CCOCC3)c12 [Example 247]
14 | 41 | CCN(CC)CC(O)CNC(=O)c1sc2ncnc(Nc3ccc(F)cc3OC3CCOCC3)c2c1C (centres unmarked) [Example 248]
15 | 21 | Cc1c(C(=O)NCCCN2CC[C@@H](O)C2)sc2ncnc(Nc3ccc(F)cc3OC3CCOCC3)c12 [Example 249]
16 | 28 | Cc1c(C(=O)NCCCN2CC[C@H](O)C2)sc2ncnc(Nc3ccc(F)cc3OC3CCOCC3)c12 [Example 251]
17 | 8420 | Cc1c(C(=O)N2CCCCC2CN2CCOCC2)sc2ncnc(Nc3ccc(F)cc3OC3CCOCC3)c12 (centres unmarked) [Example 252]

Row | IC50 [nM] | Compound
18 | 34 | Cc1c(C(=O)NCCCN2CCC(O)CC2)sc2ncnc(Nc3ccc(F)cc3OC3CCOCC3)c12 [Example 253]
19 | 42 | Cc1c(C(=O)N[C@H]2CCC[C@@H]2O)sc2ncnc(Nc3ccc(F)cc3OC3CCOCC3)c12 [Example 254]
20 | 22 | Cc1c(C(=O)N[C@@H]2CCC[C@H]2O)sc2ncnc(Nc3ccc(F)cc3OC3CCOCC3)c12 [Example 255]
21 | 37 | Cc1c(C(=O)NCC(O)CN(C)C)sc2ncnc(Nc3ccc(F)cc3OC3CCOCC3)c12 (centres unmarked) [Example 256, 4-[4-Fluoro-2-(tetrahydro-pyran-4-yloxy)-phenylamino]-5-methyl-thieno[2,3-d]pyrimidine-6-carboxylic acid (3-dimethylamino-2-hydroxy-propyl)-amide-hydrochloride]
22 | 40 | Cc1c(C(=O)NC2CCN(C)C[C@@H]2O)sc2ncnc(Nc3ccc(F)cc3OC3CCOCC3)c12 (stereo partly drawn) [Example 257, 4-[4-Fluoro-2-(tetrahydro-pyran-4-yloxy)-phenylamino]-5-methyl-thieno[2,3-d]pyrimidine-6-carboxylic acid ((S)-3-hydroxy-1-methyl-piperidin-4-yl)-amide-hydrochloride]
23 | 20 | Cc1c(C(=O)NCCCN2CCCC2)sc2ncnc(Nc3ccc(F)cc3O[C@@H]3CCCOC3)c12 [Example 258, 4-{4-Fluoro-2-[(R)-(tetrahydro-pyran-3-yl)oxy]-phenylamino}-5-methyl-thieno[2,3-d]pyrimidine-6-carboxylic acid (3-pyrrolidin-1-yl-propyl)-amide]
24 | 38 | Cc1c(C(=O)NC2CCN(C)CC2)sc2ncnc(Nc3ccc(F)cc3O[C@@H]3CCCOC3)c12 [Example 259, 4-{4-Fluoro-2-[(R)-(tetrahydro-pyran-3-yl)oxy]-phenylamino}-5-methyl-thieno[2,3-d]pyrimidine-6-carboxylic acid (1-methyl-piperidin-4-yl)-amide]
25 | 39 | Cc1c(C(=O)NCCO)sc2ncnc(Nc3cccnc3O[C@@H]3CCCOC3)c12 [Example 260, 5-Methyl-4-{2-[(R)-(tetrahydro-pyran-3-yl)oxy]-pyridin-3-ylamino}-thieno[2,3-d]pyrimidine-6-carboxylic acid (2-hydroxy-ethyl)-amide]
26 | 46 | CONC(=O)c1sc2ncnc(Nc3cccnc3O[C@@H]3CCCOC3)c2c1C [Example 261]
27 | 53 | Cc1c(C(=O)NCCCN2CCCC2)sc2ncnc(Nc3cccnc3O[C@@H]3CCCOC3)c12 [Example 262]
28 | 115 | Cc1c(C(=O)NC2CCN(C)CC2)sc2ncnc(Nc3cccnc3O[C@@H]3CCCOC3)c12 [Example 263]
29 | 23 | Cc1c(C(=O)NCC#CCN(C)C)sc2ncnc(Nc3cccnc3O[C@@H]3CCCOC3)c12 [Example 264]
30 | 34 | Cc1c(C(=O)NCCCN(C)C)sc2ncnc(Nc3cccnc3O[C@@H]3CCCOC3)c12 [Example 265]
31 | 25 | Cc1c(C(=O)NCC#N)sc2ncnc(Nc3cccnc3O[C@@H]3CCCOC3)c12 [Example 266]
32 | 36 | Cc1c(C(N)=O)sc2ncnc(Nc3cccnc3O[C@@H]3CCOC3)c12 [Example 267, 5-Methyl-4-{2-[(R)-(tetrahydro-furan-3-yl)oxy]-pyridin-3-ylamino}-thieno[2,3-d]pyrimidine-6-carboxylic acid amide]
33 | 100 | Cc1c(C(=O)NCCCN(C)C)sc2ncnc(Nc3cccnc3O[C@@H]3CCOC3)c12 [Example 268]
34 | 34 | Cc1c(C(N)=O)sc2ncnc(Nc3cccnc3O[C@H]3CCOC3)c12 [Example 269, 5-Methyl-4-{2-[(S)-(tetrahydro-furan-3-yl)oxy]-pyridin-3-ylamino}-thieno[2,3-d]pyrimidine-6-carboxylic acid amide]

The remaining lines, values behind:

Row | Compound | IC50 [nM]
35 | Cc1c(C(=O)NCC(=O)N2CCCC2)sc2ncnc(Nc3ccc(F)cc3OC3CCOCC3)c12 [Example 201] | 31
36 | Cc1c(C(=O)NC2CCOC2)sc2ncnc(Nc3ccc(F)cc3OC3CCOCC3)c12 (centres unmarked) [Example 202] | 70
37 | Cc1c(C(=O)NCC2(O)CCCC2)sc2ncnc(Nc3ccc(F)cc3OC3CCOCC3)c12 [Example 203] | 51
38 | Cc1c(C(=O)NCC2(C)CCN(C)C2)sc2ncnc(Nc3ccc(F)cc3OC3CCOCC3)c12 (centres unmarked) [Example 204] | 66
39 | Cc1c(C(=O)NCCc2ccccn2)sc2ncnc(Nc3ccc(F)cc3OC3CCOCC3)c12 [Example 206] | 43
40 | Cc1c(C(=O)NCCc2cccnc2)sc2ncnc(Nc3ccc(F)cc3OC3CCOCC3)c12 [Example 207] | 41
41 | Cc1c(C(=O)NCCc2ccncc2)sc2ncnc(Nc3ccc(F)cc3OC3CCOCC3)c12 [Example 208] | 59
42 | Cc1c(C(=O)NCCN2CCCC2)sc2ncnc(Nc3ccc(F)cc3OC3CCOCC3)c12 [Example 209] | 69
43 | Cc1c(C(=O)NCCOCCO)sc2ncnc(Nc3ccc(F)cc3OC3CCOCC3)c12 [Example 210] | 60
44 | Cc1c(C(=O)NCCO)sc2ncnc(Nc3ccc(F)cc3OC3CCOCC3)c12 [Example 211] | 29
45 | Cc1c(C(=O)NCCCN2CCOCC2)sc2ncnc(Nc3ccc(F)cc3OC3CCOCC3)c12 [Example 212] | 31
46 | Cc1c(C(=O)NCc2cccnc2)sc2ncnc(Nc3ccc(F)cc3OC3CCOCC3)c12 [Example 213] | 21
47 | Cc1c(C(=O)NCCN2CCNC2=O)sc2ncnc(Nc3ccc(F)cc3OC3CCOCC3)c12 [Example 214] | 76
48 | COCCCNC(=O)c1sc2ncnc(Nc3ccc(F)cc3OC3CCOCC3)c2c1C [Example 215] | 30
49 | Cc1c(C(=O)NCC(C)(C)CO)sc2ncnc(Nc3ccc(F)cc3OC3CCOCC3)c12 [Example 216] | 54
50 | Cc1c(C(=O)NCC2CCCO2)sc2ncnc(Nc3ccc(F)cc3OC3CCOCC3)c12 (centres unmarked) [Example 217] | 49

Row | Compound | IC50 [nM]
51 | CCOCCCNC(=O)c1sc2ncnc(Nc3ccc(F)cc3OC3CCOCC3)c2c1C [Example 218] | 33
52 | Cc1c(C(=O)NCc2ccccn2)sc2ncnc(Nc3ccc(F)cc3OC3CCOCC3)c12 [Example 219] | 33
53 | Cc1c(C(=O)NCCCn2ccnc2)sc2ncnc(Nc3ccc(F)cc3OC3CCOCC3)c12 [Example 220] | 42
54 | Cc1c(C(=O)NCc2ccncc2)sc2ncnc(Nc3ccc(F)cc3OC3CCOCC3)c12 [Example 221] | 38
55 | Cc1c(C(=O)NCCN2CCCCC2)sc2ncnc(Nc3ccc(F)cc3OC3CCOCC3)c12 [Example 222] | 51
56 | CCN(CC)CCCNC(=O)c1sc2ncnc(Nc3ccc(F)cc3OC3CCOCC3)c2c1C [Example 223] | 2290
57 | CCC(CO)NC(=O)c1sc2ncnc(Nc3ccc(F)cc3OC3CCOCC3)c2c1C (centres unmarked) [Example 224] | 63
58 | Cc1c(C(=O)NC2(CO)CCCC2)sc2ncnc(Nc3ccc(F)cc3OC3CCOCC3)c12 [Example 225] | 53
59 | Cc1c(C(=O)NC(C)(C)CO)sc2ncnc(Nc3ccc(F)cc3OC3CCOCC3)c12 [Example 226] | 55
60 | CCNC(=O)c1sc2ncnc(Nc3ccc(F)cc3OC3CCOCC3)c2c1C [Example 227] | 47
61 | Cc1c(C(=O)NCCC#N)sc2ncnc(Nc3ccc(F)cc3OC3CCOCC3)c12 [Example 228] | 35
62 | C#CCNC(=O)c1sc2ncnc(Nc3ccc(F)cc3OC3CCOCC3)c2c1C [Example 229] | 27
63 | CC(=O)NCCNC(=O)c1sc2ncnc(Nc3ccc(F)cc3OC3CCOCC3)c2c1C [Example 230] | 49
64 | Cc1c(C(=O)NCc2ncc[nH]2)sc2ncnc(Nc3ccc(F)cc3OC3CCOCC3)c12 [Example 231] | 18
65 | Cc1c(C(=O)NCCOC(C)C)sc2ncnc(Nc3ccc(F)cc3OC3CCOCC3)c12 [Example 232] | 45

From US8648068B2, “Heterocycloalkyl-containing thienopyrimidines for pharmaceutical compositions” (Boehringer Ingelheim International GmbH, priority 2010, dated 2014)
